Measurements published in publication PMC7714403 (JCI Insight, 2020).

Key:
[1] = test system: MAPKAPK2, MAPKAPK3; assay: KiNativ, OCI cells live cell; type: cell-based, human; conditions: labeling site Lys2, peptide DVKPENLLYTSK
[2] = test system: HS5 human MSCs; assay: MTT viability assay of stromal cells; type: cell-based
Method: (§1) Cell viability of primary samples
(§2) HS5-GFP human bone marrow stromal cells were plated and cultured for 72 hours to near confluence.
(§3) MOLM13 cells were then seeded onto HS5-GFP cells to establish a co-culture. Twenty-four hours later, cells were treated with increasing concentrations of drug for an additional 72 hours. MOLM13 and HS5-GFP cells were then separated and MTT assay s were performed for cell viability assessment of each cell population.
(§4) For murine or human primary AML cells, 100,000 cells/well were plated in a 96-well plate and treated with increasing concentrations of drug. Cell viability, via trypan blue, was measured every 24 hours. If the viability fell below 50% or at 72 hours of treatment, whichever came earlier, cell viability of each plate was measured via CellTiter-Glo. Primary human AML cells were obtained from the OSUCCC Leukemia Tissue Bank Shared […]
(§5) For primary human fibroblasts, cells were plated at 10,000 cells/well in a 96-well plate and cultured for 24 hours. After 24 hours, cells were treated with drug for 72 hours. A MTT assay was performed to assess cell […]
(§6) Primary AML samples were analyzed by targeted gene sequencing of 80 genes, as previously described (1). Samples were pooled and analyzed on a MiSeq system using the Illuminia MiSeq Reagent Kit v3. Ill umina Isis Banded Smith Waterman aligner and hg19 genome were used to align the sequences. […]

[3] = test system: Wnk1, Wnk2, Wnk4; assay: KiNativ, OCI cells live cell; type: cell-based, human; conditions: labeling site Activation Loop, peptide IGDLGLATLKR
[4] = test system: NEK6, NEK7; assay: KiNativ, OCI cells live cell; type: cell-based, human; conditions: labeling site Lys2, peptide DIKPANVFITATGVVK
[5] = test system: MARK1, MARK2; assay: KiNativ, OCI cells live cell; type: cell-based, human; conditions: labeling site Lys1, peptide EVAVKIIDK
[6] = biological target: CDK5 (Homo sapiens, UniProt Q00535); assay: KiNativ, OCI cells live cell; type: cell-based; conditions: 2 h
[7] = biological target: ULK3 (Homo sapiens, UniProt Q6PHR2); assay: KiNativ, OCI cells live cell; type: cell-based; conditions: labeling site Lys1, peptide EVVAIKCVAK
[8] = biological target: T1, IRAK3 (Homo sapiens, UniProt Q9Y616); assay: KiNativ, OCI cells live cell; type: cell-based; conditions: 2 h
T1 sequence (Q9Y616 1-596): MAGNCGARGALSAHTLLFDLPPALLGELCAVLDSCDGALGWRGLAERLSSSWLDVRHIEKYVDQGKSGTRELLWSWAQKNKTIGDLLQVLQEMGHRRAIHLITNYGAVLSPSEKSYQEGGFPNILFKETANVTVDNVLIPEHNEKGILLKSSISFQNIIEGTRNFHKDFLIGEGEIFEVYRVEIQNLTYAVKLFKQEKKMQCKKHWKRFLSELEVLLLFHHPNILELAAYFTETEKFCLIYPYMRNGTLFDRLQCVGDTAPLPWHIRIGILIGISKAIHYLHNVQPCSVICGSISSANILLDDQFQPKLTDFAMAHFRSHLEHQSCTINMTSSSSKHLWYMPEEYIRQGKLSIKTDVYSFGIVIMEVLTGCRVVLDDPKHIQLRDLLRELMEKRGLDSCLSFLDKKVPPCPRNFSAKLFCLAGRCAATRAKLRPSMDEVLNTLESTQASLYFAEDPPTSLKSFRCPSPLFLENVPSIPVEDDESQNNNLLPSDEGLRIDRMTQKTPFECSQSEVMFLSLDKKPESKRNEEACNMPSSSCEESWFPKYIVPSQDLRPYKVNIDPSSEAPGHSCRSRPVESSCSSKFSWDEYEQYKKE

[9] = biological target: PRP4 (Homo sapiens, UniProt Q13523); assay: KiNativ, OCI cells live cell; type: cell-based; conditions: 2 h, labeling site Lys2, peptide […]
[10] = test system: dermal fibroblasts; assay: MTT viability assay, normal cells; type: cell-based, human; conditions: 2 donors, 72 h
Method: as §1, §2, §3, §4, §5, §6

Sequence of CDK5 (Q00535 whole entry): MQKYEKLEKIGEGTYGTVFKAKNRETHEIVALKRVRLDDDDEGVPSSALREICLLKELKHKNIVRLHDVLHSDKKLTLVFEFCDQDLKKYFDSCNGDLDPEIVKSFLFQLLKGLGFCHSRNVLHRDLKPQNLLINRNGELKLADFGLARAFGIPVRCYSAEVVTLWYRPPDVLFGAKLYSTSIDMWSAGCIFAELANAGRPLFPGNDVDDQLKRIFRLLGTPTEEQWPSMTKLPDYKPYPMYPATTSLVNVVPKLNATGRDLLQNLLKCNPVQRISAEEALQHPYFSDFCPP
Sequence of ULK3 (Q6PHR2 whole entry): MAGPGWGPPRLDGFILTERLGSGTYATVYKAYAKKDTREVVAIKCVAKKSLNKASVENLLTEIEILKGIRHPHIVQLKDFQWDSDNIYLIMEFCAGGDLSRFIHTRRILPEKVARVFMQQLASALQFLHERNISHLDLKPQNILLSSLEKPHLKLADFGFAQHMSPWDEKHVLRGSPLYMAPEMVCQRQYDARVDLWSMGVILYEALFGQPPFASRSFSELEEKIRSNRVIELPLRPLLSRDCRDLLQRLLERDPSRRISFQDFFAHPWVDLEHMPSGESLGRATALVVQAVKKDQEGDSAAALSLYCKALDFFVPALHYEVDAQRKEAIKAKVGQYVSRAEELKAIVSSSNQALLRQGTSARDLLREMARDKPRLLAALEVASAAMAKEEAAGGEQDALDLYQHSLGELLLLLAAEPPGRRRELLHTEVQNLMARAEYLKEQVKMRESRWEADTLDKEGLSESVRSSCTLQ
Sequence of PRP4 (Q13523 whole entry): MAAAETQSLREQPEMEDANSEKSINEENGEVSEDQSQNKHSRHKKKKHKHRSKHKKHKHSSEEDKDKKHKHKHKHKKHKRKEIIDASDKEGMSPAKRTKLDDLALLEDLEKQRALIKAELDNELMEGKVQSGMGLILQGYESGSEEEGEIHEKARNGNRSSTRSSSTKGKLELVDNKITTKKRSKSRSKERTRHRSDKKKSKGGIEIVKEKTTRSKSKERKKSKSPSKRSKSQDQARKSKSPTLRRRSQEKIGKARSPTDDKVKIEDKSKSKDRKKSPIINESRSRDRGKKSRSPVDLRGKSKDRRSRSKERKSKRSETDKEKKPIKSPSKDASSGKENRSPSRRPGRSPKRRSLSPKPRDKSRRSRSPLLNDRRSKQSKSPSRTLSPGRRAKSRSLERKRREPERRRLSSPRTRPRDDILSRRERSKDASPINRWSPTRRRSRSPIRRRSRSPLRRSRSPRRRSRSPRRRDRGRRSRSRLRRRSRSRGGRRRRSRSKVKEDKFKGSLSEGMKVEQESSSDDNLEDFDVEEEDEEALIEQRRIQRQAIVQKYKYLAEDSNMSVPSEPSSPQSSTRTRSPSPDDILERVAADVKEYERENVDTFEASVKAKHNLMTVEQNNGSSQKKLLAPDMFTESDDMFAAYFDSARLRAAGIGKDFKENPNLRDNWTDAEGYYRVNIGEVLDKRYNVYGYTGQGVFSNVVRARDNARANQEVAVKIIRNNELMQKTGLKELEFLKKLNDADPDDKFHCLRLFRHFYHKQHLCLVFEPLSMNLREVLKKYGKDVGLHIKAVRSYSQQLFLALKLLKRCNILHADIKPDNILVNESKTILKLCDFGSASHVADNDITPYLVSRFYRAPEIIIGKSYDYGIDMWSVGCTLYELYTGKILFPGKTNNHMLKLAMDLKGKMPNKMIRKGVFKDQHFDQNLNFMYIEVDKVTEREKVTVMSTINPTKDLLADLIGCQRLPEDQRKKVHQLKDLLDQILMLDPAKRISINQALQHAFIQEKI

CN1CCN(Cc2ccc(Nc3ncc(Cl)c(Nc4ccccc4S(=O)(=O)N(C)C)n3)cc2)CC1 [TP-0903]
Inhibition [1]: -42.8% | Concentrations not cytotoxic to HS5 human MSCs [2]: < 250 nM | Inhibition [3]: -23.7% | Inhibition [4]: -9.6% | Inhibition [5]: 26.6% | inhibition at 0.1 µM ([6]; labeling site Lys1, peptide NRETHEIVALKR): 57% | inhibition at 0.1 µM ([6]; labeling site Lys2, peptide DLKPQNLLINR): 55.5% | Inhibition [7]: 40.5% | inhibition at 0.1 µM ([8]; labeling site Lys1, peptide VEIQNLTYAVKLFK): 87.9% | inhibition at 0.1 µM ([8]; labeling site Protein Kinase Domain, peptide SHLEHQSCTINMTSSSSKHLWYMPEEYIR): 94.9% | inhibition at 0.1 µM [9]: -18.7% | Concentrations inhibiting viability of fibroblasts [10]: ≥ 250 nM
